Assay results: patent publication US5705649A, “Protein staining compositions and methods” (Promega Corporation, priority 1995, dated 1998)

Legend:
carbonic anhydrase = assay: Staining in polyacrylamide gels not containing SDS; conditions: 50 mM Tris-HCl pH 8.0
Method: (§1) A polyacrylamide gel was made containing a 10% separating gel and a 3% stacking gel having 50 mM Tris-HCl pH 8.0 as a buffer. A sample loading solution was made containing Promega Green 1 dissolved in 50 mM Tris-HCl, pH 8.0, 20% glycerol. Samples of bovine serum albumin (BSA) and carbonic anhydrase were added to the sample buffer. The samples were loaded onto the gel and the gel was assembled into a BioRad miniprotean II gel system. An electrode buffer solution of 50 mM Tris pH 8.0 was used to fill the buffer chamber and a voltage of 150 volts was applied to the apparatus. […] Therefore, the stain need not be used only in systems containing SDS.

[1] = test system: bovine serum albumin (BSA); assay: Staining in polyacrylamide gels not containing SDS; conditions: 50 mM Tris-HCl pH 8.0
Method: as §1

bovine serum albumin [2] = assay: Analysis of partial proteolytic products (Cleveland analysis)
Method: The comparison of proteins by analysis of the products of partial proteolysis using SDS-PAGE electrophoresis has been reported extensively in the literature. This analysis, termed Cleveland analysis, can provide important information on many different types of covalent changes that can occur on proteins.
An 8% SDS-PAGE gel was made as described in Example 5. A 5 μl sample of 1× loading buffer containing 4 μg of Bovine serum albumin previously heated at 95° C. for 5 minutes was placed in several of the wells and electrophoresis was performed as described in Example 5.
A second […] 16% SDS-PAGE gel was made as described in Example 5.
After electrophoresis, segments of the gel containing the BSA sample were excised by use of a razor blade and loaded into three of the sample wells of the second, 16 % gel. Then, 20 μl of 1× loading buffer containing 0.5 μg of Endoprotease Glu C, 0.5 μg of Endoprotease Lys C and 0.1 μg of Alkaline Protease, respectively, was added to individual wells containing the gel slices. Also, 5 μl of a solution of 4 μg of BSA in 1× loading buffer that was previously heated to 95° C. for 15 minutes was placed in a second set of three wells. To each of these three samples was added individual 20 μl solutions containing 0.5 μg of Endoprotease Glu C, 0.5 μg of Endoprotease Lys C, or 0.1 μg of Alkaline Protease, respectively. […]

bovine serum albumin [3] = assay: Quantitation of proteins separated by SDS-PAGE (dye extracted from excised bands); conditions: 66 Kd
Method: (§2) The samples used were prepared with Promega Mid-Range Molecular Weight Markers solution (Promega Corp., Madison, Wis., USA, Catalog No. V5231) (referred to hereinafter as "Promega Mid-Range [Molecular Weight] Markers or Standards") diluted into Sample Buffer. Promega Mid-Range Molecular Weight Markers is a solution, at about 0.5 mg/ml, of each of the following proteins as a molecular weight standard: phosphorylase B (apparent molecular weight: 97,400 daltons ("d")), bovine serum albumin (apparent molecular weight: 66,200 d), glutamate dehydrogenase (apparent molecular weight: 55,000 d), ovalbumin (apparent molecular weight: 42,700 d), aldolase (apparent molecular weight: 40,000 d), carbonic anhydrase (apparent molecular weight: 31,000 d), soybean trypsin inhibitor (apparent molecular weight: 21,500 d), and lysozyme (apparent molecular weight: 14,400 d). […] The samples were heated to 95° C. for 10 minutes with occasional vortex treatment in 1.5 ml Eppendorf centrifuge tubes and then centrifuged in an Eppendorf centrifuge for 20 seconds to ensure that the protein in the sample was denatured and well mixed.
(§3) A 10% SDS-PAGE gel was made as described in the Example 5. Promega Mid-Range Molecular Weight Standards were diluted into loading buffer to produce solutions containing 2.0, 1.0, 0.5, and 0.25 μg of protein per band in 5 μl of solution. Duplicate 5 μl solutions of each of these solutions were loaded into 1 of the 10 sample wells in the gel after the solutions were heated at 95° C. for 10 minutes. The gel was then electrophoresed at 160 V until the running dye just eluted from the bottom of the gel. The gel was destained, and signal from stained protein enhanced, for 90 minutes in 30% methanol, 4% acetic acid.
(§4) One of the pair of duplicate bands for the 97.4, 66.2, 55.0 and 42.7 kilodalton standards from the lanes containing 2.0, 1.0, 0.5, and 0.25 μg of protein per band were excised with a razor blade as were two control gel segments from regions of the gel not containing protein. The excised segments were placed in individual 1.5 ml Eppendorf tubes containing 2% SDS and allowed to incubate at room temperature for 72 hours. After this time, the solutions were removed from the extracted segments and acetic acid was added to 2% (v/v) final concentration. The absorption of the solutions at […] was then measured.

glutamate dehydrogenase = assay: as above; conditions: 55 Kd
Method: as §2, §3, §4

ovalbumin = assay: as above; conditions: 43 Kd
Method: as §2, §3, §4

phosphorylase B = assay: as above; conditions: 97 kD
Method: as §2, §3, §4

Absorbance at 630 nm (bovine serum albumin [3]; 0.25 μg/band): .052 | Absorbance at 630 nm (bovine serum albumin [3]; 0.50 μg/band): .074 | Absorbance at 630 nm (bovine serum albumin [3]; 1.00 μg/band): .138 | Absorbance at 630 nm (bovine serum albumin [3]; 2.00 μg/band): .192 | Absorbance at 630 nm (glutamate dehydrogenase; 0.25 μg/band): .053 | Absorbance at 630 nm (glutamate dehydrogenase; 0.50 μg/band): .063 | Absorbance at 630 nm (glutamate dehydrogenase; 1.00 μg/band): .105 | Absorbance at 630 nm (glutamate dehydrogenase; 2.00 μg/band): .138 | Absorbance at 630 nm (ovalbumin; 0.25 μg/band): .042 | Absorbance at 630 nm (ovalbumin; 0.50 μg/band): .064 | Absorbance at 630 nm (ovalbumin; 1.00 μg/band): .126 | Absorbance at 630 nm (ovalbumin; 2.00 μg/band): .195 | Absorbance at 630 nm (phosphorylase B; 0.25 μg/band): .032 | Absorbance at 630 nm (phosphorylase B; 0.50 μg/band): .053 | Absorbance at 630 nm (phosphorylase B; 1.00 μg/band): .083 | Absorbance at 630 nm (phosphorylase B; 2.00 μg/band): .128
SMILES: CCCCCCCC(=O)N(c1ccc(OCC)cc1)c1ccc(C(=C2C=CC(=[N+](CC)Cc3cccc(S(=O)(=O)[O-])c3)C=C2)c2ccc(N(CC)Cc3cccc(S(=O)(=O)O)c3)cc2)cc1 [Promega Green 1]
staining of carbonic anhydrase in gel without SDS (carbonic anhydrase): seen to migrate through the gel as stained bands | staining of BSA in gel without SDS [1]: seen to migrate through the gel as stained bands | visibility of partial proteolytic pattern (bovine serum albumin [2]; 30% methanol, 4% acetic acid enhancement): readily apparent in a very short period of time | interference with Cleveland type protein analysis (bovine serum albumin [2]; Endoprotease Glu C, Endoprotease Lys C, Alkaline Protease): does not interfere with Cleveland type protein analysis
